*: point of attachment. NHNH2 = NN*
Assays:
Format in all cases: cell-based
[1] = system: ARPE19 cells; assay: EGFP mRNA delivery, robotic library screening, ARPE19
Summary of the method: (§1)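 Transfection used amphiphile at final 2.5, 5 or 10 μM with EGFP mRNA (25 ng/well) for 4 h without serum, then medium with 10% FBS. Plate-reader EGFP signal at 72 h, untreated background removed, mean of triplicates.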

[2] = system: HepG2 cells; assay: RLuc pDNA delivery, robotic library screening, HepG2
Summary of the method: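 After the 4 h exposure the complexes were replaced with fresh DMEM plus 10% FBS. At 72 hours cells were washed with HBSS, kept 30 minutes at 37° C. for basal readings, then given coelenterazine h (5 μM final) for 10 minutes before total luminescence was read. Triplicate means had untransfected background subtracted and were also expressed relative to Lipofectamine® 2000 set at 1.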

[3] = system: HepG2 cells; assay: EGFP mRNA delivery, robotic library screening, HepG2; settings: HepG2 cells
Summary of the method: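 This robotic library screen tested delivery of CleanCap EGFP mRNA (5moU) into HepG2 cells using amphiphilic molecules. Complexes were freshly prepared at room temperature and added to the cells, and the medium was then replaced with fresh DMEM plus 10% FBS. Total EGFP fluorescence was measured in a plate reader at 72 h in triplicate, with untreated-cell background subtracted.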

[4] = system: A549 cells; assay: RLuc pDNA delivery, robotic library screening, A549
Summary of the method: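 A549 cells in DMEM+10% FBS were washed twice with PBS and exposed for 4 h to amphiphile/RLuc pDNA complexes prepared from DMSO stocks diluted in DMEM. After medium replacement and 72 hours, cells in HBSS were incubated at 37° C. for 30 minutes, basal then total luminescence measured after 5 μM coelenterazine h; background from untransfected cells was subtracted.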

[5] = system: A549 cells; assay: EGFP mRNA delivery, robotic library screening, A549
Summary of the method: as §1

“Ac-RK*LRRK*L-NH2 (Ac-RK(NHNH2)LRRK(NHNH2)L-NH2; not fully specified; printed as Ac-RK*LRRK*L-NH2; also: K*2,K*6: native or modified lysine (ε-amide to a linker)) [Peptide 7.2]” was tested, and the “mean fluorescence intensity (EGFP mRNA)” value ([1]; Dodecanal, 2.5 μM) was 898, the “mean fluorescence intensity (EGFP mRNA)” value ([1]; Dodecanal, 5 μM) was 436 and the “mean fluorescence intensity (EGFP mRNA)” value ([1]; Dodecanal, 10 μM) was 1046. The “mean fluorescence intensity (EGFP mRNA)” value ([1]; Myristoleyl, 2.5 μM) was 2289, the “mean fluorescence intensity (EGFP mRNA)” value ([1]; Myristoleyl, 5 μM) was 1119 and the “mean fluorescence intensity (EGFP mRNA)” value ([1]; Myristoleyl, 10 μM) was 1131. The “mean luminescent intensity (RLuc pDNA)” value ([2]; Dodecanal, 10 μM) was 4114 RLU, the “mean luminescent intensity (RLuc pDNA)” value ([2]; Dodecanal, 15 μM) was 1202 RLU and the “mean luminescent intensity (RLuc pDNA)” value ([2]; Myristoleyl, 5 μM) was 11364 RLU. The “mean luminescent intensity (RLuc pDNA)” value ([2]; Myristoleyl, 10 μM) was 23772 RLU, the “mean luminescent intensity (RLuc pDNA)” value ([2]; Myristoleyl, 15 μM) was 25742 RLU and the “mean fluorescence intensity after transfection of EGFP mRNA” value ([3]; Dodecanal, 5 μM) was 75. The “mean fluorescence intensity after transfection of EGFP mRNA” value ([3]; Dodecanal, 10 μM) was −468, the “mean fluorescence intensity after transfection of EGFP mRNA” value ([3]; Dodecanal, 15 μM) was 268 and the “mean fluorescence intensity after transfection of EGFP mRNA” value ([3]; Myristoleyl, 5 μM) was 678. The “mean fluorescence intensity after transfection of EGFP mRNA” value ([3]; Myristoleyl, 10 μM) was 752, the “mean fluorescence intensity after transfection of EGFP mRNA” value ([3]; Myristoleyl, 15 μM) was −60 and the “mean luminescent intensity (RLuc pDNA)” value ([4]; Dodecanal, 5 μM) was 302 RLU. The “mean luminescent intensity (RLuc pDNA)” value ([4]; Dodecanal, 15 μM) was 208 RLU, the “mean luminescent intensity (RLuc pDNA)” value ([4]; Myristoleyl, 5 μM) was 5449 RLU and the “mean luminescent intensity (RLuc pDNA)” value ([4]; Myristoleyl, 10 μM) was 5343 RLU. The “mean luminescent intensity (RLuc pDNA)” value ([4]; Myristoleyl, 15 μM) was 2367 RLU, the “mean fluorescence intensity (EGFP mRNA)” value ([5]; Dodecanal, 2.5 μM) was 428 and the “mean fluorescence intensity (EGFP mRNA)” value ([5]; Dodecanal, 5 μM) was −205. The “mean fluorescence intensity (EGFP mRNA)” value ([5]; Dodecanal, 10 μM) was −3, the “mean fluorescence intensity (EGFP mRNA)” value ([5]; Myristoleyl, 2.5 μM) was 1101 and the “mean fluorescence intensity (EGFP mRNA)” value ([5]; Myristoleyl, 5 μM) was 231. For the same substance, the “mean fluorescence intensity (EGFP mRNA)” value ([5]; Myristoleyl, 10 μM) was 123.

— patent US20250304623A1, “PEPTIDES FOR INTRACELLULAR DELIVERY” (UNIVERSIDADE DE SANTIAGO DE COMPOSTELA, priority 2022, published 2025)
